We go through two compounds from patent US20250134800A1, “Biomass Extract For Skin Applications” (EMBION TECHNOLOGIES SA, priority 2022, published 2025).

The subject of one test is S. aureus. Nature of the test: Inhibitory study on colonized Reconstructed Human Epidermis (RHE), viable count. The format is cell-based, Staphylococcus aureus. An excerpt:
The principal aim of the present study was to evaluate the potential efficacy of BSG-derived preparations on a more biologically relevant in vitro preclinical model based on colonized Reconstructed Human Epidermis (RHE). The main focus was given to: • I. to counteract Staphylococcus aureus adhesion and its proliferative capacity. The rationale was based on the possibility of the ingredients to balance the inflammatory reaction induced by the bacterium, reducing its adhesion and growth on RHE model (inhibitory study); • II. the prebiotic effect of the 3 preparations versus Staphylococcus epidermidis (prebiotic study). The rationale was based on the possibility of the ingredients to protect and biostimulant the normal skin microbiota; • III. their biological impact on sterile RHE model. The rationale was based on the possibility that the ingredients to enhance or balance the innate immune response.
For this study the following BSG-derived preparations were used: • for inhibitory and ingredient impact effects: P1 at 1%, P3 at 2% and P4 at 4%; • for prebiotic effect: […] at 1%, P3 at 2% and P5 at 1%.
SkinEthic^@ Reconstituted Human Epidermis 0.5 cm^2 is a reconstructed epidermis of normal human keratinocytes. Cells are grown on inert polycarbonate filters in chemically defined medium, for 17 days. The model reproduces epidermal morphology and it has been fully characterized. The good barrier function, batch reproducibility and low variability in terms of permeability for probe molecules have been described in Literature compared to human ex-vivo models. The RHE batch was tested for the absence of HIV1 and 2 antibodies, hepatitis C antibodies and hepatitis B antigen HBs. On cells from the donors, was verified the absence of bacteria, fungus and mycoplasma. The maintenance medium was tested for sterility.
Two days before the test, bacterial strains (S. aureus and S. epidermidis) were daily inoculated onto culture medium (BHI agar plate) and incubated at 37° C. in aerobic conditions for at least 24 h in order to obtain a fresh culture. The day of the colonization, bacterial strains have been resuspended in sterile saline solution at the required concentration range. Each starting bacterial inoculum concentration was checked by spectrophotometric OD measure and adjusted to obtain a range of about 10^7-10^8 UFC/mL (OD=0.1); it was then diluted 10-fold to obtain a final range concentration of 10^3-10^4 UFC/tissue for the inhibitory study and 10^4-10^5 UFC/tissue for prebiotic study. The starting inoculum level was also confirmed by serial decimal dilutions and viable counts on agar plates (BHI).
For both inhibitory and prebiotic RHE were pre-treated twice (overnight and 1 h before colonization respectively with 50 uL and 30 uL) on the apical part (directly spread on tissue surface) and left incubated at 37° C. (with CO2 5%) up to the colonization. Pre-treated RHE dedicated to inhibitory and prebiotic studies were colonized with 30 μL of the bacterial suspension previously obtained (respectively with S. aureus for inhibitory study and S. epidermidis for prebiotic study) and incubated at 37° C. (with CO2 5%) up to the required time point (24 h). RHE sterile were not colonized pre-treated twice (overnight and 1 h before colonization respectively with 50 uL and 30 uL) on the apical part (directly spread on tissue surface) and left incubated at 37° C. (with CO2 5%) up to the required time point (24 h). […]

Test [1] deals with Staphylococcus aureus (MRSA) ATCC 33591. The experiment in a line: Microdilution assay in liquid broth, viable count on agar plates. The format is cell-based. The conditions noted are these: positive controls at 4%, up to 24 h. Here is the method:
(§1) A microbiological screening study on liquid broth was performed to assess the activity (bacterial growth) of 5 preparations (P1, P2, P3, P4 and P5) on two Staphylococcus species: (1) Staphylococcus aureus (MRSA) ATCC 33591 as potential skin pathogen and (2) Staphylococcus epidermidis ATCC 12228 as commensal strain in healthy skin. With the aim to assess a potential and strain specific antimicrobial or prebiotic activity vs Staphylococcus spp and to validate the hypothesis that the ingredients may have a prebiotic effect (on S. epidermidis) and meanwhile negatively impacting the viability or growth rate (on S. aureus), the experimental results are presented below.
(§2) To assess a potential and strain specific antimicrobial or prebiotic activity vs Staphylococcus spp.: a microdilution assay (viable count on agar plates) in liquid broth was performed using 3 different concentrations, 4%-2%-1% for each ingredient, compared to inulin and glucose as carbon source and prebiotic reference. […]
(§3) The growth rate checked by viable count (CFU/mL) was performed to quantify the number of residual viable cells present in the test cultures and they were then expressed as Log values.
(In broth dilution the organism is exposed to a series of concentrations in liquid medium.)

Test [2] relates to Staphylococcus epidermidis ATCC 12228. Described as above. The format is cell-based. To be noted: positive controls at 4%, up to 24 h. The protocol: as §1, §2, §3
Setting [3] is: RHE model after 2 days, vs colonized control, P1 1%, P3 2%, P4 4%, Chlorexidine 1%.
Setting [4] is: RHE model after 2 days, P1 1%, P3 2%, P4 4%, Chlorexidine 1%.

Regarding `N=C(NCCCCCCNC(=N)NC(=N)Nc1ccc(Cl)cc1)NC(=N)Nc1ccc(Cl)cc1` [REF, Chlorexidine], in the test on S. aureus (P3 at 2%, P4 at 4%, REF Chlorexidine 1%), the “bacterial growth on RHE compared to the colonized control” value is recorded as “no bacterial growth”. Moreover, in the test on S. aureus (setting [3]), the “Apical fraction Log reductions” value is reported as >3.26 Log and the “Homogenate fraction Log reductions” value is >3.00 Log. In the test on S. aureus (setting [4]), the “Apical fraction Log (Mean) viable count” value is on record as <2.00 Log and the “Homogenate fraction Log (Mean) viable count” value is <2.00 Log.
In the case of Inulin, the “growth compared with inoculum count” value in test [1] and in test [2] was “growth similar to the inoculum count” throughout.
